Source: patent US20130253069A1, “Use of DMSO for Destroying Adipocytes and Eliminating Cellulite and Adiposities” (priority 2010, published 2013)
Like-named read-outs stand apart in the source and are kept apart here.

Legend:
[1] = cited from earlier work
[2] = system: fat cells; settings: cited from earlier work
[3] = system: serum cholesterol; settings: cats, given with water along with a cholesterol-based diet; cited from earlier work
[4] = system: adipocytes (fat cells); assay: Adipocytes destroyed per application of DMSO; format: in vivo
[5] = cited from earlier work; remark: listed apart in the source
[6] = system: cyclic AMP phosphodiesterase; settings: present in fat cells; high concentrations; cited from earlier work
[7] = set-up: species or system human; settings: in vivo
From the text: (§1) 145 subjects were randomized in 3 groups and received 3 different treatments according to established method. Group A entered 29 female subjects having Dermal Paniculopathy (cellulite) stages 1 and 2, Group B entered 58 female subjects with Dermal Paniculopathy (cellulite) stages 3 and 4, and Group C entered 58 subjects, 35 female and 23 male, all having pronounced abdominal fat.
(§2) The three products were formulated as follows: group A consisted in an aqueous solution of DMSO at 20% and aerosol spray to 5%, group B consisted in an aqueous solution of DMSO at 50% and aerosol spray 5%, and group C consisted in an aqueous solution of DMSO at 90% and aerosol spray at 5%.
The aqueous solution was used in the massage applied before the delivery of spray. Each massage session lasted 45 minutes in average. […]
Adverse reactions commonly reported in a period of 2 hours right after the application were: nausea (27 subjects or 19%), headache (15 subjects or 11%), feeling of burn in application site (11 subjects or 8%), itch and redness in application site (14 subjects or 10%), hypotension (7 subjects or 5%), odor and taste similar to garlic or corn (136 subjects or 98%), dry mouth (32 subjects or 23%), increased diuresis (98 subjects or 70%), strong urine color and odor (68 subjects or 49%). These reactions were evaluated as light and transitory.

[8] = cited from earlier work; remark: listed apart in the source
[9] = system: cellulite and adiposities; assay: Study of efficacy of topically delivered DMSO for eliminating cellulite and adiposities; format: in vivo, human
From the text: This study was exclusively designed to determine the efficacy and safety of DMSO delivered in several manners and in different concentrations for eliminating cellulite and adiposities.
This is a multicentric, prospective, longitudinal study, where clinical and instrumental parameters are used to detect results regarding different formulations and application forms performed. It is not possible to perform a double-blind study with placebo due to the strong odor of DMSO present in formulations, easy to identify.
A group of 145 subjects, with ages ranging from 18 to 55 years (average 36.5 y.o.), having cellulite for at least 2 years, were recruited from April, 2008 until July, 2008.
Inclusion criteria were: presence of cellulite (stages 1, 2, 3, and 4) in subjects of groups A and B; accentuated abdominal fat in the subjects of the group C; age ranging from 18 to 55 years old and interest in entering the study.
Exclusion criteria were: after liposculpture, other treatments anti-cellulite ongoing or 30 days before entering the study, pregnant and nursing women, cancer, people with hormonal alterations, endocrinological disorders, and people under hormonal or endocrinal treatment.
as §1, §2
The aqueous solution was used in the massage applied before the delivery of spray. Each massage session lasted 45 minutes in average.
After massage, the spray was applied at 30 cm (11.80 in) of distance for approximately 5 seconds in each site.
After the procedure as above, a drainage massage was applied for 20 minutes.
In total, each session last 1 hour and 30 minutes in average.
Two sessions were applied per week during 5 weeks.
All subjects were analyzed at the end of each session, and especially after the 10 sessions.
Evaluation methods were: digital photographs (before and after), clinical observation, measurement of thigh circumference, pinching test (for pain), measurement of fat with plicometer/adipometer, measurement of abdominal circumference, measurement of hips and waist circumference, and questionnaire with questions about swelling, pain and heaviness in the legs, cellulite appearance, weight, general efficacy of the product, tolerability, satisfaction with the treatment, sensation of wellbeing, increased diuresis, urine color, among others.

[10] = humans, after DMSO administration
[11] = humans, dermal delivery of a DMSO solution at 70%
[12] = topical DMSO 80%, gram/kg per day, 60 subjects, 14 days
[13] = humans, plasma, dermal delivery of a DMSO solution at 70%
[14] = % of subjects in this category after 10 topical sessions
[15] = % of subjects in this category after 10 topical sessions, regular diet and physical activities kept
[16] = reports among subjects with accentuated venous insufficiency and varicose veins (30% of 139)

Compound: CS(C)(=O)=O [DMSO2, Dimethyl sulphona]
- time DMSO2 persisted in plasma [1, 10]: approximately 400 hours
- time at which DMSO2 appeared in plasma [1, 10]: 48 h
- Excretion of DMSO2 ([1]; humans, dermal administration of DMSO): 21-23%
- duration of urinary excretion of DMSO2 [1, 11]: 456 h
- plasmatic levels of DMSO2 after 312 hours [1, 11]: low but still detectable
- time at which urinary excretion of DMSO2 became more significant [1, 11]: approximately 8 hours
- time of maximum plasmatic levels of DMSO2 [1, 11]: 60 to 70 h
- total average amount of DMSO2 excreted in urine [1, 11]: 17.8 % dose of DMSO
- Excretion of DMSO2 ([1]; humans, oral administration of DMSO): 5-10%
- accumulation of cyclic AMP due to norepinephrine [2]: did not cause any changes

Compound: C[S+](C)[O-] [DMSO, Dimethyl Sulfoxide]
- prevention of expected increase of serum cholesterol [3]: 50%
- amount of adipocytes destroyed per session/application [4]: 50,000-500,000 cells
- eosinophilia ([5]; DMSO at 80% gram/kilogram per day topically for 14 days and 90 days): can cause eosinophilia
- ocular adverse effect ([5]; subjects receiving topical solution): No ocular adverse effect was observed
- dizziness [5, 12]: 18%
- dry nasal passages, dry or painful throat and cough [5, 12]: Less than 5%
- headache [5, 12]: 42%
- sedation [5, 12]: 52%
- duration of odor similar to garlic in the body ([5]; topical application): up to 72 hours
- dose excreted in the air as dimethyl sulfide ([1]; estimate of Kolb et al. (1965)): approximately 3 % of the dose
- dose recovered in urine ([1]; humans, 1 g/kg dermally, fluid form and gel form, 10 subjects each): less than 10 % of the dose
- Urinary excretion of DMSO ([1]; humans, dermal administration): 30-68 % of the dose
- Total urinary excretion of DMSO (average) [1, 11]: 13 % dose
- dose accounted for by urinary excretion of DMSO and DMSO2 (average) [1, 11]: 30.8 % dose
- duration of urinary excretion of DMSO [1, 11]: 48 h
- time of maximum plasmatic levels of DMSO [1, 11]: 4 to 8 h
- time of peak of plasmatic levels ([1]; humans, dermally administered): 4 to 8 h
- Urinary excretion of DMSO ([1]; humans, oral administration): approximately 13 % of the dose
- time to plasma peak ([1]; humans, orally administered): ≤ 4 h
- half-life [1, 13]: 11 to 14 h
- time after which DMSO could not be detected any longer [1, 13]: 36 to 48 h
- time after which serum levels of DMSO were undetectable ([1]; humans): 120 h
- share of excretion via air ([1]; in vivo): less than 3%
- activity of cyclic AMP phosphodiesterase, soluble and particulate [6]: inhibited
- Discontinuation of treatment due to adverse reactions [7]: No patient discontinued the treatment due to adverse reactions
- teratogenic effects ([8]; animals exposed): Teratogenic effects were observed
- ocular findings in animals ([8]; studies in animals): changes to lenses
- time at which increase of cyclic AMP due to DMSO was detected ([2]; after addition of the lipolytic agents, 1.10 M DMSO): 40 s
- increase of lipolysis due to glucagon, norepinephrine or theophylline [2]: potentialized
- lipolysis [2]: increased
- oxidation of glucose stimulated by insulin [2]: decreased
- General satisfaction after all 10 sessions: Bad ([9]; % of subjects in this category): 0%
- General satisfaction after all 10 sessions: Excellent ([9]; % of subjects in this category): 72%
- General satisfaction after all 10 sessions: Good ([9]; % of subjects in this category): 6%
- General satisfaction after all 10 sessions: Great ([9]; % of subjects in this category): 22%
- General satisfaction after all 10 sessions: Regular ([9]; % of subjects in this category): 0%
- Abdominal circumference reduction: 3.1-5 cm [9, 14]: 39%
- Abdominal circumference reduction: 5.1 cm and more [9, 14]: 29%
- Abdominal circumference reduction: Up to 3 cm [9, 14]: 32%
- Diuresis improvement: Bad [9, 14]: 0%
- Diuresis improvement: Excellent [9, 14]: 28%
- Diuresis improvement: Good [9, 14]: 25%
- Diuresis improvement: Great [9, 14]: 39%
- Diuresis improvement: Regular [9, 14]: 8%
- General efficacy: Bad [9, 14]: 0%
- General efficacy: Excellent [9, 14]: 74%
- General efficacy: Good [9, 14]: 9%
- General efficacy: Great [9, 14]: 17%
- General efficacy: Regular [9, 14]: 0%
- General feeling of improvement: Bad [9, 14]: 0%
- General feeling of improvement: Excellent [9, 14]: 78%
- General feeling of improvement: Good [9, 14]: 10%
- General feeling of improvement: Great [9, 14]: 12%
- General feeling of improvement: Regular [9, 14]: 0%
- Hip circumference reduction: 2.6-4.5 cm [9, 14]: 43%
- Hip circumference reduction: 4.5 cm and more [9, 14]: 26%
- Hip circumference reduction: Up to 2.5 cm [9, 14]: 31%
- Improvement from orange peel skin appearance: Bad [9, 14]: 0%
- Improvement from orange peel skin appearance: Excellent [9, 14]: 76%
- Improvement from orange peel skin appearance: Good [9, 14]: 11%
- Improvement from orange peel skin appearance: Great [9, 14]: 13%
- Improvement from orange peel skin appearance: Regular [9, 14]: 0%
- Mood improvement: Bad [9, 14]: 0%
- Mood improvement: Excellent [9, 14]: 26%
- Mood improvement: Good [9, 14]: 33%
- Mood improvement: Great [9, 14]: 41%
- Mood improvement: Regular [9, 14]: 0%
- Reduced pain in cellulite sites: Bad [9, 14]: 0%
- Reduced pain in cellulite sites: Excellent [9, 14]: 21%
- Reduced pain in cellulite sites: Good [9, 14]: 39%
- Reduced pain in cellulite sites: Great [9, 14]: 27%
- Reduced pain in cellulite sites: Regular [9, 14]: 13%
- Thigh circumference reduction: 2.1-4 cm [9, 14]: 48%
- Thigh circumference reduction: 4.1 cm and more [9, 14]: 24%
- Thigh circumference reduction: Up to 2 cm [9, 14]: 28%
- well-being: Bad [9, 14]: 5%
- well-being: Excellent [9, 14]: 20%
- well-being: Good [9, 14]: 28%
- well-being: Great [9, 14]: 44%
- well-being: Regular [9, 14]: 3%
- Weight loss: 2.1-3 kg [9, 15]: 44%
- Weight loss: 3 kg and more [9, 15]: 25%
- Weight loss: Up to 2 kg [9, 15]: 31%
- Decreased and whitened macrovaricose veins [9, 16]: 39%
- Decreased pain in legs, arms and hands [9, 16]: 62%
- Decreased swelling and heaviness in the legs [9, 16]: 73%
- Decreased tingling legs and arms [9, 16]: 55%

Compound: CSC [dimethyl sulfide]
- accumulation of cyclic AMP due to norepinephrine [2]: did not cause any changes
